# Laboratory results taken from patent US9145408B2 (priority 2008, dated 2015).
# Where a name gives a salt, the structure may show the parent alone.
# Legend:
# [1] = tested on: FCA-induced thermal hyperalgesia; assay: FCA model of inflammatory pain, thermal hyperalgesia; assay type: in vivo; details: rat FCA model
# Procedure: (§1) Test Animals: Each experiment used rats weighing between 200-260 g at the start of the experiment. The rats were group-housed and had free access to food and water at all times, except prior to oral administration of a Substituted-Quinoxaline-Type Bridged-Piperidine Compound when food was removed for 16 hours before dosing. A control group acted as a comparison to rats treated with a Substituted-Quinoxaline-Type Bridged-Piperidine Compound. The control group was administered the carrier for the Substituted-Quinoxaline-Type Bridged-Piperidine Compound. The volume of carrier administered to the control group was the same as the volume of carrier and Substituted-Quinoxaline-Type Bridged-Piperidine Compound administered to the test group.
# Inflammatory Pain: To assess the actions of a Substituted-Quinoxaline-Type Bridged-Piperidine Compound for the treatment or prevention of inflammatory pain, the Freund's complete adjuvant (“FCA”) model of inflammatory pain was used. […] The left hind paw of each animal was administered a 50 μL intraplantar injection of 50% FCA. 24 hour post injection, the animal was assessed for response to noxious mechanical stimuli by determining the PWT, or to noxious thermal stimuli by determining the PWL, as described below. […] Responses to noxious mechanical stimuli were then determined 1, 3, 5 and 24 hours post administration. Percentage reversal of hyperalgesia for each animal was defined as: […]
# Response to Thermal Stimuli as an Assessment of Thermal Hyperalgesia: The plantar test can be used to assess thermal hyperalgesia. For this test, hind paw withdrawal latencies (PWL) to a noxious thermal stimulus were determined using a plantar test apparatus (commercially available from Ugo Basile of Italy) following the technique described by K. Hargreaves et al., “A New and Sensitive Method for Measuring Thermal Nociception in Cutaneous Hyperalgesia,” Pain 32(1):77-88 (1988). The maximum exposure time was set at 32 seconds to avoid tissue damage and any directed paw withdrawal from the heat source was taken as the end point. Three latencies were determined at each time point and averaged. Either only the affected (ipsilateral) paw was tested, or both the ipsilateral and contralateral (non-injured) paw were tested.
# [2] = abnormal behavioral side effects (sedation, hyperactivity, hypoactivity); details: in vivo
# [3] = tested on: nerve injury-induced mechanical hyperalgesia; assay: Seltzer partial sciatic nerve ligation model of neuropathic pain, mechanical hyperalgesia; assay type: in vivo; details: rat Seltzer model, 3 mg/kg
# Procedure: as §1
# Partial ligation of the left sciatic nerve was performed under isoflurane/O2 inhalation anesthesia. Following induction of anesthesia, the left thigh of the rat was shaved and the sciatic nerve exposed at high thigh level through a small incision and was carefully cleared of surrounding connective tissues at a site near the trocanther just distal to the point at which the posterior biceps semitendinosus nerve branches off of the common sciatic nerve. A 7-0 silk suture was inserted into the nerve with a ⅜ curved, reversed-cutting mini-needle and tightly ligated so that the dorsal ⅓ to ½ of the nerve thickness was held within the ligature. The wound was closed with a single muscle suture (4-0 nylon (Vicryl)) and vetbond tissue glue. Following surgery, the wound area was dusted with antibiotic powder. Sham-treated rats underwent an identical surgical procedure except that the sciatic nerve was not manipulated. Following surgery, animals were weighed and placed on a warm pad until they recovered from anesthesia. Animals were then returned to their home cages until behavioral testing began. The animals were assessed for response to noxious mechanical stimuli by determining PWT, as described below, prior to surgery (baseline), then immediately prior to and 1, 3, and 5 hours after drug administration for rear paw of the animal. Percentage reversal of neuropathic hyperalgesia was defined as: […]
# Response to Mechanical Stimuli as an Assessment of Mechanical Hyperalgesia: The paw pressure assay was used to assess mechanical hyperalgesia. For this assay, hind paw withdrawal thresholds (PWT) to a noxious mechanical stimulus were determined using an analgesymeter (Model 7200, commercially available from Ugo Basile of Italy) as described in C. […] The maximum weight that could be applied to the hind paw was set at 250 g and the end point is taken was complete withdrawal of the paw. PWT was determined once for each rat at each time point and either only the affected (ipsilateral) paw was tested, or both the ipsilateral and contralateral (non-injured) paw were tested.
# [4] = target: hERG (human ether a-go-go gene) (Homo sapiens (Human), UniProt Q12809); assay: cardiovascular side effects: in vitro hERG assay and APD in guinea pig purkinje fibers; assay type: cell-based; details: in vitro hERG assay; APD in guinea pig purkinje fibers
# Procedure: These side effects were determined using known methods: an in vitro hERG (human ether a-go-go gene) assay as disclosed in Z. Zhou et al., “Properties of HERG Channels Stably Expressed in HEK 293 Cells Studied at Physiological Temperature,” Biophysical J. 74:230-241 (1998); and APD (action potential duration) in guinea pig purkinje fibers as disclosed in J. A. Hey, “The Guinea Pig Model for Assessing Cardiotoxic Proclivities of Second Generation Antihistamines,” Arzneimittelforschung 46(8):834-837 (1996).
# [5] = 5 mg/kg dose, 3 hours after administration
# [6] = 5 mg/kg dose, 5 hours after administration
SMILES,"% reversal of thermal hyperalgesia ([1]; 5 mg/kg dose, 1 hour after administration)","% reversal of thermal hyperalgesia [1, 5]","% reversal of thermal hyperalgesia [1, 6]","abnormal behavioral side effects, such as sedation, hyperactivity and/or hypoactivity [2]","% reversal of thermal hyperalgesia ([1]; 3 mg/kg dose, 1 hour after administration)","% reversal of thermal hyperalgesia ([1]; 3 mg/kg dose, 3 hours after administration)","% reversal of thermal hyperalgesia ([1]; 3 mg/kg dose, 5 hours after administration)",ED50 value for reversal of thermal hyperalgesia ([1]; 1 hour after administration),ED50 value for reversal of thermal hyperalgesia ([1]; 3 hours after administration),ED50 value for reversal of thermal hyperalgesia ([1]; 5 hours after administration),% reversal of mechanical hyperalgesia ([3]; 1 hour after administration),% reversal of mechanical hyperalgesia ([3]; 3 hours after administration),% reversal of mechanical hyperalgesia ([3]; 5 hours after administration),% reversal of mechanical hyperalgesia ([3]; 7 hours after administration),cardiovascular side effects [4]
O=C(O)c1nc2ccccc2n([C@H]2C[C@H]3CC[C@@H](C2)N3C2CCCCCCCCCC2)c1=O [Compound 358],34%,46%,79%,reduced abnormal behavioral side effects,,,,,,,,,,,
"O=C(O)c1nc2ccccc2n([C@H]2C[C@H]3CC[C@@H](C2)N3[C@H]2C[C@@H]3CCC[C@@H](C3)C2)c1=O [Compound 361, 4-((endo)-8-((exo)-bicyclo[3.3.1]nonan-3-yl)-8-azabicyclo[3.2.1]octan-3-yl)-3-oxo-3,4-dihydroquinoxaline-2-carboxylic acid]",,90%,70%,reduced abnormal behavioral side effects,,,,,,,,,,,
"O=C(O)c1nc2ccccc2n([C@H]2C[C@H]3CCC[C@@H](C2)N3C2CC3CCCC(C3)C2)c1=O (stereo partly drawn) [Compound 362, 4-((endo)-9-((exo)-bicyclo[3.3.1]nonan-3-yl)-9-azabicyclo[3.3.1]nonan-3-yl)-3-oxo-3,4-dihydroquinoxaline-2-carboxylic acid]",,,,reduced abnormal behavioral side effects,86%,51%,27%,0.8 mg/kg,1.5 mg/kg,3.0 mg/kg,60%,60%,50%,40%,reduced cardiovascular side effects
"C[C@@H]1C[C@@H]2C[C@H](C1)C[C@@H](N1[C@@H]3CCC[C@H]1C[C@@H](n1c(=O)c(C(=O)O)nc4ccccc41)C3)C2 [Compound 405, (exo, endo, endo)-4-(9-(7-methylbicyclo[3.3.1]nonan-3-yl)-9-azabicyclo[3.3.1]nonan-3-yl)-3-oxo-3,4-dihydroquinoxaline-2-carboxylic acid potassium salt]",,,,,,,,,,,70%,70%,70%,,
